Experimental data: patent publication US9527869B2, “Indolizine derivatives as phoshoinositide 3-kinases inhibitors” (CHIESI FARMACEUTICI S.P.A., priority 2014, dated 2016)
Counter-ions that a name gives are not always drawn.

Experiments:
Assay type in all cases: biochemical
[1] = biological target: T1, PI3Kγ (Homo sapiens, UniProt P48736); experiment: In vitro determination of the PI3K enzyme inhibitory activity in the cell free assay (ADP-Glo Kinase Assay), PI3Kγ; details: ATP 30 μM, read-out: PI3K gamma inhibition
T1 construct: purchased Millipore Ltd (Billerica, Mass.)
T1 sequence (P48736 whole entry): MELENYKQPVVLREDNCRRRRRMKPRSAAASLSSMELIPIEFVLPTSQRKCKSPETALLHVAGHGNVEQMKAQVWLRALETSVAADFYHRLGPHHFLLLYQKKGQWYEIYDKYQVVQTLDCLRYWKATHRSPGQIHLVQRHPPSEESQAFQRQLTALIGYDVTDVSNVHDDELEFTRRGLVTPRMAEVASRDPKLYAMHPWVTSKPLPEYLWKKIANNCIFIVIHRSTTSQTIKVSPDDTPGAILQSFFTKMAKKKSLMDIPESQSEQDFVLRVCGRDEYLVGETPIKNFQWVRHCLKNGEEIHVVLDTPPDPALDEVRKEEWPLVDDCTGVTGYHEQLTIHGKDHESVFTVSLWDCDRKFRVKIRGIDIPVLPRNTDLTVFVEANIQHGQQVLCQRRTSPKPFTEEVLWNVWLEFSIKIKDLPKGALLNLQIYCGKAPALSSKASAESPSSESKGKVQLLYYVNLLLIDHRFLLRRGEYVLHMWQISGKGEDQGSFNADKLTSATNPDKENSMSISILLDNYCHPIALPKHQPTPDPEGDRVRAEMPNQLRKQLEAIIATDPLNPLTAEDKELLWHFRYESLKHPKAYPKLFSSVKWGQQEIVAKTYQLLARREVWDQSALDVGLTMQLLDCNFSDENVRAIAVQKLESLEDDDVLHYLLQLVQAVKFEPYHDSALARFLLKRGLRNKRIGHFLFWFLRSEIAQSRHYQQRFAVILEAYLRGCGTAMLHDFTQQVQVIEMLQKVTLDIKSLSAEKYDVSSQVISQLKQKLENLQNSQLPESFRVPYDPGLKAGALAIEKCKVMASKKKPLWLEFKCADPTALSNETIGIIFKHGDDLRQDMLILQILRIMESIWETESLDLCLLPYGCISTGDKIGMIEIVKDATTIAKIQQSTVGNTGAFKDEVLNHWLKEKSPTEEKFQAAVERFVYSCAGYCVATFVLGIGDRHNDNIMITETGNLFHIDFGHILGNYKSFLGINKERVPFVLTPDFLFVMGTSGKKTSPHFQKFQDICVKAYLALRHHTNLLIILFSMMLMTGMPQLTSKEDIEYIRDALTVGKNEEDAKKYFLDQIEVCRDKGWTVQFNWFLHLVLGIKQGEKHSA
How it was run: (§1)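 IC50 values came from four-parameter logistic fitting of ADP-Glo luminescence after 60 min kinase reactions at room temperature. ATP (final) was set per isoform: α 50 μM, β 100 μM, γ 30 μM, δ 80 μM. Substrates were phosphatidylinositol and phosphatidylserine (50 μM in 2× Tris pH 7.5 buffer), with human recombinant enzymes.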

[2] = biological target: T2, PI3Kβ (Homo sapiens, UniProt P42338); experiment: In vitro determination of the PI3K enzyme inhibitory activity in the cell free assay (ADP-Glo Kinase Assay), PI3Kβ; details: ATP 100 μM, read-out: PI3K beta inhibition
T2 construct: purchased Millipore Ltd (Billerica, Mass.)
T2 sequence (P42338 whole entry): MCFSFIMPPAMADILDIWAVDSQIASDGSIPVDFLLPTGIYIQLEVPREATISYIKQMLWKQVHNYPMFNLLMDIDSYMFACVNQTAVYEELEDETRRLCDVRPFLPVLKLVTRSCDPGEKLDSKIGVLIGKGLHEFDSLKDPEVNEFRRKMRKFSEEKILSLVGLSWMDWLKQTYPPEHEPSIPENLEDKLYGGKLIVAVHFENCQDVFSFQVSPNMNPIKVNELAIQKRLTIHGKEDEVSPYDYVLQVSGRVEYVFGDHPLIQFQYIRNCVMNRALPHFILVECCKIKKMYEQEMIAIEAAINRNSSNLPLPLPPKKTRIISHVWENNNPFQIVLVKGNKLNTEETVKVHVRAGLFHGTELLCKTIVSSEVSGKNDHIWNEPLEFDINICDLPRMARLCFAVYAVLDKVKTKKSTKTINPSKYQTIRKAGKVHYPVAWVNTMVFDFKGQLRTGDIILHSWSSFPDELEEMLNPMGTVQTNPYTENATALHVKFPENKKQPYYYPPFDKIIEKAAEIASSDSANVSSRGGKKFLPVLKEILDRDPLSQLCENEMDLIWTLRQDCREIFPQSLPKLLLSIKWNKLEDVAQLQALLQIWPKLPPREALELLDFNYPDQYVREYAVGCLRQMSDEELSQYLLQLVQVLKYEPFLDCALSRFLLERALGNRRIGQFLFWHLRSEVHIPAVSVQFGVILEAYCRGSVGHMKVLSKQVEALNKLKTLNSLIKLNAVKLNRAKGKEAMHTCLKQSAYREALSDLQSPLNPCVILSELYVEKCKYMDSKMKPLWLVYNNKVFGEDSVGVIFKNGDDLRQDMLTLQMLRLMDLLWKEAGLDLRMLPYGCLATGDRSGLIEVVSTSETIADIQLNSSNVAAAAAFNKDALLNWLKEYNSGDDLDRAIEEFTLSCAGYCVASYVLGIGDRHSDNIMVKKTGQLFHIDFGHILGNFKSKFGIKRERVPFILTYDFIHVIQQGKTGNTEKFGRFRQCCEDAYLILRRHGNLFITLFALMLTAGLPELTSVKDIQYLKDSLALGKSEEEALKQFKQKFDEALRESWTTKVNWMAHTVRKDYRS
T2 sequence (P27986 whole entry partner): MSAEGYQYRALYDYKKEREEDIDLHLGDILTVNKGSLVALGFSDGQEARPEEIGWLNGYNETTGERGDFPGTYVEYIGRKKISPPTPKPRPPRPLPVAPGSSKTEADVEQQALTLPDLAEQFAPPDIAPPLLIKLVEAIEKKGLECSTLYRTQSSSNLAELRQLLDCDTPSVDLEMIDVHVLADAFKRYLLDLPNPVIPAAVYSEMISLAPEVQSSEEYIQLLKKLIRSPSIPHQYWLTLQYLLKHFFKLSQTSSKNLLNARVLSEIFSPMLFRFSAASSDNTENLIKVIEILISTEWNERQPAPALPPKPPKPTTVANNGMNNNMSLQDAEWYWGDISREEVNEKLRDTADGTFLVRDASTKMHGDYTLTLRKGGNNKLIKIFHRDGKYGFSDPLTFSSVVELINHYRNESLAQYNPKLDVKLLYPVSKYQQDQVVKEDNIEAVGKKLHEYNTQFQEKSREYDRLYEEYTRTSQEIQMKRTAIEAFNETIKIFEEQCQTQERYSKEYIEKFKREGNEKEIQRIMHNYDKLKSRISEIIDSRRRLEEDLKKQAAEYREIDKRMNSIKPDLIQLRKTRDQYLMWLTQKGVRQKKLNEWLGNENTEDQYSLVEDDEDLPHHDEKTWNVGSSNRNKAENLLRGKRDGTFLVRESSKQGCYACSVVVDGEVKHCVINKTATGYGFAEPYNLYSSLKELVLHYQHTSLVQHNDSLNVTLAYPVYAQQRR
How it was run: as §1

[3] = biological target: T3, PI3Kα (Homo sapiens, UniProt P42336); experiment: In vitro determination of the PI3K enzyme inhibitory activity in the cell free assay (ADP-Glo Kinase Assay), PI3Kα; details: ATP 50 μM, read-out: PI3K alpha inhibition
T3 construct: purchased Millipore Ltd (Billerica, Mass.)
T3 sequence (P42336 whole entry): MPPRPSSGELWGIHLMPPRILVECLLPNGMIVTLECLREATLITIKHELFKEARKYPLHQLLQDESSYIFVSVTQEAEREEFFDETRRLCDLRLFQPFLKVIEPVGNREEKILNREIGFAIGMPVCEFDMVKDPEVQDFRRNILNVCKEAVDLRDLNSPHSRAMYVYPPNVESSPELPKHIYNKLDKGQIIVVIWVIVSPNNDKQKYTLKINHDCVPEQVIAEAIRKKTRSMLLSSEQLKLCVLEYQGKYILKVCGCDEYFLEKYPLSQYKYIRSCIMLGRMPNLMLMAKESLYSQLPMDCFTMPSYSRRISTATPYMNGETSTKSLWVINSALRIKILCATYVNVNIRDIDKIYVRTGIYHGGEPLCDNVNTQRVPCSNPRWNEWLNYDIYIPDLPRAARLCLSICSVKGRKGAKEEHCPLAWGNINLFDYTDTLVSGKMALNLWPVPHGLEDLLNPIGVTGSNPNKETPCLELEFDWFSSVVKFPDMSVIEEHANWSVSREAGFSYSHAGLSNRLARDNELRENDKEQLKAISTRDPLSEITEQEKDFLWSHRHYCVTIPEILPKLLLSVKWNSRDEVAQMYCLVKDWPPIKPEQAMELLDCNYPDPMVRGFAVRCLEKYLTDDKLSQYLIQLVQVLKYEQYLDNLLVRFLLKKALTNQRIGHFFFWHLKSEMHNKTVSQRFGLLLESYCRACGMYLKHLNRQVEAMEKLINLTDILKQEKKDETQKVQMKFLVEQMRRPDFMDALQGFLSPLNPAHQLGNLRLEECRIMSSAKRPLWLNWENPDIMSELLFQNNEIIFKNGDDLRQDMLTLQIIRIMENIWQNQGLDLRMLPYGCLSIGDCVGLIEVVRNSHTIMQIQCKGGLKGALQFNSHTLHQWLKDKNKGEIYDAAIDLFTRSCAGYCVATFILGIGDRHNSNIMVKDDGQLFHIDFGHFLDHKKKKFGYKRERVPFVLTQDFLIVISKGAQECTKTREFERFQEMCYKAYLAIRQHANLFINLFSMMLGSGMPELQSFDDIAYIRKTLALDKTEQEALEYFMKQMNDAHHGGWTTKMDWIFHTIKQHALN
T3 sequence (P27986 whole entry partner): as the sequence (P27986 whole entry partner) above
How it was run: as §1

[4] = biological target: T4, PI3Kδ (Homo sapiens, UniProt O00329); experiment: In vitro determination of the PI3K enzyme inhibitory activity in the cell free assay (ADP-Glo Kinase Assay), PI3Kδ; details: ATP 80 μM, read-out: PI3K delta inhibition
T4 construct: purchased Millipore Ltd (Billerica, Mass.)
T4 sequence (O00329 whole entry): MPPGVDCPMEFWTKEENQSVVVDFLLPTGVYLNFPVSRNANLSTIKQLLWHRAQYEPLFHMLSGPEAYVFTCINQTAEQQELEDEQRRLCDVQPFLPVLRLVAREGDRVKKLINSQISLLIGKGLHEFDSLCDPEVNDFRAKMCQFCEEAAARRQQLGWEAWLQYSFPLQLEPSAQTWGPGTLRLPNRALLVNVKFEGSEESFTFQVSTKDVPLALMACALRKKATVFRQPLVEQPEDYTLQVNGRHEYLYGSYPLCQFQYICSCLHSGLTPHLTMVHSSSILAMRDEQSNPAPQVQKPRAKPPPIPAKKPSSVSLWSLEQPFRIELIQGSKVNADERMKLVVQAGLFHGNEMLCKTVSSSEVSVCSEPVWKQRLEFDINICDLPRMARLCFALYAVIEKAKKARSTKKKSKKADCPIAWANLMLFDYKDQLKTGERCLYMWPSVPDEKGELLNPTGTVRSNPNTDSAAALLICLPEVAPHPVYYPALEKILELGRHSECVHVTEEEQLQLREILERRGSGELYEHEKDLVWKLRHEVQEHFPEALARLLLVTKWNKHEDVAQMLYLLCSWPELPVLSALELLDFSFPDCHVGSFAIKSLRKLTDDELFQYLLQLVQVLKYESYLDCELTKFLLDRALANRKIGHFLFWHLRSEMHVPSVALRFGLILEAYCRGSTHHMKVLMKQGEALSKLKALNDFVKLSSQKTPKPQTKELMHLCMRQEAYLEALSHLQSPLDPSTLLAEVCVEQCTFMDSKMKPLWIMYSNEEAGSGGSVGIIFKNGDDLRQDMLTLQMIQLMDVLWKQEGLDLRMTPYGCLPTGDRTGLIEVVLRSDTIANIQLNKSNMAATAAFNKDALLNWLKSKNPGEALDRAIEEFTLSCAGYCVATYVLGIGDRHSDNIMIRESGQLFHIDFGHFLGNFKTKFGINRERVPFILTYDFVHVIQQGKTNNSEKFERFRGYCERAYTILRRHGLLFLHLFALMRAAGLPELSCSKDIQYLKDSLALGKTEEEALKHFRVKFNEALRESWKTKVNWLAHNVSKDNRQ
T4 sequence (P27986 whole entry partner): as the sequence (P27986 whole entry partner) above
How it was run: as §1

| IC50 [1] [µM] | IC50 [2] [µM] | IC50 [3] [µM] | IC50 [4] [µM] | Compound |
| --- | --- | --- | --- | --- |
| > 1 | > 1 | > 1 | > 1 | CC(Nc1ncnc(N)c1C(=O)O)c1cc2ccccn2c1-c1ccccn1 (stereo not drawn) [Example 53, 4-amino-6-({1-[3-(pyridin-2-yl)indolizin-2-yl]ethyl}amino)pyrimidine-5-carboxylic acid formate] |
| > 1 | > 1 | > 1 | > 1 | CC(Nc1ncnc(N)c1CO)c1cc2ccccn2c1-c1ccccn1 (stereo not drawn) [Example 56, [4-amino-6-({1-[3-(pyridin-2-yl)indolizin-2-yl]ethyl}amino)pyrimidin-5-yl]methanol] |
| > 1 | > 1 | > 1 | 0.01 to 1 | CC(Nc1ncnc(N)c1C#CCO)c1cc2ccccn2c1-c1ccccn1 (stereo not drawn) [Example 59, 3-[4-amino-6-({1-[3-(pyridin-2-yl)indolizin-2-yl]ethyl}amino)pyrimidin-5-yl]prop-2-yn-1-ol] |
| 0.01 to 1 | 0.01 to 1 | > 1 | 0.01 to 1 | CC(c1cc2ccccn2c1-c1ccccn1)n1nc(-c2cccc(O)c2)c2c(N)ncnc21 (stereo not drawn) [Example 61, 3-(4-amino-1-{1-[3-(pyridin-2-yl)indolizin-2-yl]ethyl}-1H-pyrazolo[3,4-d]pyrimidin-3-yl)phenol] |
| > 1 | > 1 | > 1 | 0.01 to 1 | COc1cc(F)cc(-c2nn(C(C)c3cc4ccccn4c3-c3ccccn3)c3ncnc(N)c23)c1 (stereo not drawn) [Example 62, 3-(3-fluoro-5-methoxyphenyl)-1-{1-[3-(pyridin-2-yl)indolizin-2-yl]ethyl}-1H-pyrazolo[3,4-d]pyrimidin-4-amine] |
| > 1 | > 1 | > 1 | > 1 | CC(=O)Nc1cccc(-c2nn(C(C)c3cc4ccccn4c3-c3ccccn3)c3ncnc(N)c23)c1 (stereo not drawn) [Example 63, N-[3-(4-amino-1-{1-[3-(pyridin-2-yl)indolizin-2-yl]ethyl}-1H-pyrazolo[3,4-d]pyrimidin-3-yl)phenyl]acetamide] |
| > 1 | 0.01 to 1 | > 1 | 0.01 to 1 | CC(c1cc2ccccn2c1-c1ccccn1)n1nc(-c2cccc(F)c2)c2c(N)ncnc21 (stereo not drawn) [Example 66, 3-(3-fluorophenyl)-1-{1-[3-(pyridin-2-yl)indolizin-2-yl]ethyl}-1H-pyrazolo[3,4-d]pyrimidin-4-amine] |
| 0.01 to 1 | 0.01 to 1 | > 1 | < 0.01 | CC(c1cc2ccccn2c1-c1ccccn1)n1nc(-c2cncc(O)c2)c2c(N)ncnc21 (stereo not drawn) [Example 69, 5-(4-amino-1-{1-[3-(pyridin-2-yl)indolizin-2-yl]ethyl}-1H-pyrazolo[3,4-d]pyrimidin-3-yl)pyridin-3-ol] |
| > 1 | > 1 | > 1 | 0.01 to 1 | CC(c1cc2ccccn2c1-c1ccccn1)n1nc(-c2cccc(S(N)(=O)=O)c2)c2c(N)ncnc21 (stereo not drawn) [Example 73, 3-(4-amino-1-{1-[3-(pyridin-2-yl)indolizin-2-yl]ethyl}-1H-pyrazolo[3,4-d]pyrimidin-3-yl)benzene-1-sulfonamide] |
| > 1 | > 1 | > 1 | > 1 | CC(c1cc2ccccn2c1-c1ccccn1)n1nc(-c2cc(F)cc(S(N)(=O)=O)c2)c2c(N)ncnc21 (stereo not drawn) [Example 75, 3-(4-amino-1-{1-[3-(pyridin-2-yl)indolizin-2-yl]ethyl}-1H-pyrazolo[3,4-d]pyrimidin-3-yl)-5-fluorobenzene-1-sulfonamide] |

Second part, the compound before the results:

| Compound | IC50 [1] [µM] | IC50 [2] [µM] | IC50 [3] [µM] | IC50 [4] [µM] |
| --- | --- | --- | --- | --- |
| CC(Nc1ncnc(N)c1C(F)(F)F)c1cc2ccccn2c1-c1ccccn1 (stereo not drawn) [Example 49, 4-N-{1-[3-(pyridin-2-yl)indolizin-2-yl]ethyl}-5-(trifluoromethyl)pyrimidine-4,6-diamine] | > 1 | > 1 | > 1 | 0.01 to 1 |
| Cc1c(N)ncnc1NC(C)c1cc2ccccn2c1-c1ccccn1 (stereo not drawn) [Example 50, 5-methyl-4-N-{1-[3-(pyridin-2-yl)indolizin-2-yl]ethyl}pyrimidine-4,6-diamine] | > 1 | > 1 | > 1 | 0.01 to 1 |
| CNC(=O)c1c(N)ncnc1NC(C)c1cc2ccccn2c1-c1ccccn1 (stereo not drawn) [Example 51, 4-amino-N-methyl-6-({1-[3-(pyridin-2-yl)indolizin-2-yl]ethyl}amino)pyrimidine-5-carboxamide] | > 1 | > 1 | > 1 | 0.01 to 1 |
| CC(Nc1ncnc(N)c1C(N)=O)c1cc2ccccn2c1-c1ccccn1 (stereo not drawn) [Example 52, 4-amino-6-({1-[3-(pyridin-2-yl)indolizin-2-yl]ethyl}amino)pyrimidine-5-carboxamide] | > 1 | > 1 | > 1 | 0.01 to 1 |
| CC(NC(=O)c1nccnc1N)c1cc2ccccn2c1-c1ccccn1 (stereo not drawn) [Example 54, 3-amino-N-{1-[3-(pyridin-2-yl)indolizin-2-yl]ethyl}pyrazine-2-carboxamide] | > 1 | > 1 | > 1 | > 1 |
| Nc1nccnc1C(=O)NCc1cn2ccccc2c1-c1ccccn1 [Example 55, 3-amino-N-{[1-(pyridin-2-yl)indolizin-2-yl]methyl}pyrazine-2-carboxamide] | > 1 | > 1 | > 1 | > 1 |
| CC(Nc1ncnc(N)c1CN1CCOCC1)c1cc2ccccn2c1-c1ccccn1 (stereo not drawn) [Example 57, 5-(morpholin-4-ylmethyl)-4-N-{1-[3-(pyridin-2-yl)indolizin-2-yl]ethyl}pyrimidine-4,6-diamine] | > 1 | > 1 | > 1 | > 1 |
| CC(Nc1ncnc(N)c1/C=N/O)c1cc2ccccn2c1-c1ccccn1 (stereo not drawn) [Example 58, 5-[(1E)-(hydroxyimino)methyl]-4-N-{1-[3-(pyridin-2-yl)indolizin-2-yl]ethyl}pyrimidine-4,6-diamine] | > 1 | 0.01 to 1 | > 1 | < 0.01 |
| CC(c1cc2ccccn2c1-c1ccccn1)n1nc(-c2ccccc2)c2c(N)ncnc21 (stereo not drawn) [Example 60, 3-phenyl-1-{1-[3-(pyridin-2-yl)indolizin-2-yl]ethyl}-1H-pyrazolo[3,4-d]pyrimidin-4-amine] | > 1 | > 1 | > 1 | 0.01 to 1 |
| CC(c1cc2ccccn2c1-c1ccccn1)n1nc(-c2cccc(CO)c2)c2c(N)ncnc21 (stereo not drawn) [Example 64, [3-(4-amino-1-{1-[3-(pyridin-2-yl)indolizin-2-yl]ethyl}-1H-pyrazolo[3,4-d]pyrimidin-3-yl)phenyl]methanol] | > 1 | > 1 | > 1 | 0.01 to 1 |
| CC(c1cc2ccccn2c1-c1ccccn1)n1nc(-c2cc(O)cc(C(F)(F)F)c2)c2c(N)ncnc21 (stereo not drawn) [Example 65, 3-(4-amino-1-{1-[3-(pyridin-2-yl)indolizin-2-yl]ethyl}-1H-pyrazolo[3,4-d]pyrimidin-3-yl)-5-(trifluoromethyl)phenol] | 0.01 to 1 | 0.01 to 1 | > 1 | < 0.01 |
| CC(c1cc2ccccn2c1-c1ccccn1)n1nc(-c2cccc(NS(C)(=O)=O)c2)c2c(N)ncnc21 (stereo not drawn) [Example 67, N-[3-(4-amino-1-{1-[3-(pyridin-2-yl)indolizin-2-yl]ethyl}-1H-pyrazolo[3,4-d]pyrimidin-3-yl)phenyl]methanesulfonamide] | > 1 | > 1 | > 1 | 0.01 to 1 |
| CC(c1cc2ccccn2c1-c1ccccn1)n1nc(-c2cccnc2)c2c(N)ncnc21 (stereo not drawn) [Example 68, 1-{1-[3-(pyridin-2-yl)indolizin-2-yl]ethyl}-3-(pyridin-3-yl)-1H-pyrazolo[3,4-d]pyrimidin-4-amine] | > 1 | > 1 | > 1 | 0.01 to 1 |
| CC(c1cc2ccccn2c1-c1ccccn1)n1nc(-c2ccc(O)c(F)c2)c2c(N)ncnc21 (stereo not drawn) [Example 70, 4-(4-amino-1-{1-[3-(pyridin-2-yl)indolizin-2-yl]ethyl}-1H-pyrazolo[3,4-d]pyrimidin-3-yl)-2-fluorophenol] | 0.01 to 1 | > 1 | > 1 | 0.01 to 1 |
| CC(c1cc2ccccn2c1-c1ccccn1)n1nc(-c2ccc(F)c(O)c2)c2c(N)ncnc21 (stereo not drawn) [Example 71, 5-(4-amino-1-{1-[3-(pyridin-2-yl)indolizin-2-yl]ethyl}-1H-pyrazolo[3,4-d]pyrimidin-3-yl)-2-fluorophenol] | 0.01 to 1 | > 1 | > 1 | 0.01 to 1 |
| CC(c1cc2ccccn2c1-c1ccccn1)n1nc(-c2cc(O)cc(Cl)c2)c2c(N)ncnc21 (stereo not drawn) [Example 72, 3-(4-amino-1-{1-[3-(pyridin-2-yl)indolizin-2-yl]ethyl}-1H-pyrazolo[3,4-d]pyrimidin-3-yl)-5-chlorophenol] | 0.01 to 1 | 0.01 to 1 | > 1 | < 0.01 |
| CC(c1cc2ccccn2c1-c1ccccn1)n1nc(-c2cc(F)cc(NS(C)(=O)=O)c2)c2c(N)ncnc21 (stereo not drawn) [Example 74, N-[3-(4-amino-1-{1-[3-(pyridin-2-yl)indolizin-2-yl]ethyl}-1H-pyrazolo[3,4-d]pyrimidin-3-yl)-5-fluorophenyl]methanesulfonamide] | > 1 | > 1 | > 1 | 0.01 to 1 |
